The data set is described as follows: Equilibrium aqueous solubility under pH controlled conditions. The data set is classed as physicochemical.

The record followed here is patent publication US20100273808A1 (Millennium Pharmaceticals, Inc., priority 2008, published 2010).

Read-outs that look alike come from different tables or passages of the source.

What is called solubility is how much of the substance goes into solution per volume. Take `COc1cc2c(N3CCN(C(=O)Nc4ccc(OC(C)C)cc4)CC3)ncnc2cc1OCCCN1CCCCC1.C[C@H](O)C(=O)O` [Form 4, 4-[6-methoxy-7-(3-piperidin-1-yl-propoxy)quinazolin-4-yl]piperazine-1-carboxylic acid(4-isopropoxyphenyl)-amide (L)-lactate Form 4]: the solubility entry (in water, physiologically relevant pH's) was “greater than 325 mg/mL”; the solubility (pH 3.65, aqueous buffer, thermodynamic from solid, equilibrium aqueous, pH 3.65, read-out: Solubility) came to 359 mg/mL; the solubility (pH 5.85, aqueous buffer, thermodynamic from solid, equilibrium aqueous, pH 5.85, read-out: Solubility) was found to be 412 mg/mL; the solubility (pH 6.03, aqueous buffer, thermodynamic from solid, equilibrium aqueous, pH 6.03, read-out: Solubility) is 327 mg/mL.
With `COc1cc2c(N3CCN(C(=O)Nc4ccc(OC(C)C)cc4)CC3)ncnc2cc1OCCCN1CCCCC1.C[C@H](O)C(=O)O` [Form 1, 4-[6-methoxy-7-(3-piperidin-1-yl-propoxy)quinazolin-4-yl]piperazine-1-carboxylic acid(4-isopropoxyphenyl)-amide (L)-lactate Form 1], the solubility is greater than 450 mg/mL (aqueous buffer, thermodynamic from solid, in water, physiologically relevant pH's, read-out: solubility); 496 mg/mL (pH 3.51, aqueous buffer, thermodynamic from solid, equilibrium aqueous, pH 3.51, read-out: Solubility); 465 mg/mL (pH 3.97, aqueous buffer, thermodynamic from solid, equilibrium aqueous, pH 3.97, read-out: Solubility); 511 mg/mL (pH 4.23, aqueous buffer, thermodynamic from solid, equilibrium aqueous, pH 4.23, read-out: Solubility); 458 mg/mL (pH 5.96, aqueous buffer, thermodynamic from solid, equilibrium aqueous, pH 5.96, read-out: Solubility).
For `COc1cc2c(N3CCN(C(=O)Nc4ccc(OC(C)C)cc4)CC3)ncnc2cc1OCCCN1CCCCC1` [compound of formula (II), 4-[6-methoxy-7-(3-piperidin-1-yl-propoxy)quinazolin-4-yl]piperazine-1-carboxylic acid(4-isopropoxyphenyl)-amide], the solubility (in water, pH 6.95, read-out: solubility) was roughly 1.24 mg/mL.
